Reference: patent US20240228465A1, “SUBSTITUTED PYRIDINE N-OXIDE DERIVATIVES USEFUL AS A FACTOR XIA INHIBITORS” (Janssen Pharmaceutica NV, priority 2021, published 2024)
pIC50: −log10 of the molar value. Where two headings read alike, the source gives them in different places.

How the values were obtained:
[1] = biological target: Factor XIa (Homo sapiens, UniProt P03951); assay: Factor XIa inhibition assay utilizing a fluorophore-quencher pair peptide substrate (FLINT); format: biochemical; conditions: 30 min preincubation
Excerpt: Biological Example 1: Factor XIa Inhibition Assay Utilizing a Fluorophore-Quencher Pair Peptide Substrate
A fluorescence intensity (FLINT) based assay was used to monitor inhibition of Factor XIa. The peptide substrate, 5Fam-KLTRAETV-K5Tamra (purchased from New England Peptide) was chosen based on the […]. Conversion of zymogen […]. The custom peptide used in this assay was based on the Arg146 cleavage site of FXI. The peptide substrate was designed with a fluorophore-quencher pair, where the fluorescence is quenched until FXIa cleaves the 8-mer peptide after the Arg residue. The substrate KM was fit to a substrate inhibition model whereby kcat=0.86 s^−1, KM=12.4 μM, Ki=61.6 μM with an enzymatic efficiency, and kcat/KM=69523 M^−1s^−1.
The Factor XIa FLINT assay was used with the following 5Fam-KLTRAETV-K5Tamra assay buffer: 50 mM Tris, pH 7.5, 100 mM NaCl, 5 mM CaCl2, 0.1 mg/mL BSA, 0.03% CHAPS. Assay buffer was prepared by mixing all ingredients fresh. 5Fam-KLTRAETV-K5Tamra peptide substrate was first prepared at 10 mM in 100% DMSO, then diluted to 3 mM in 100% DMSO. Assay buffer was then added directly to the 3 mM stock of substrate to prepare the 30 μM 2× working concentration (15 μM final concentration). The 2× Factor XIa stock solution was prepared by diluting 6.562 μM stock in 1× assay buffer for a […].
Test compound(s) were run in an 11-point, 3-fold serial dilution with a final top compound concentration of 100 nM. Final DMSO in assay was 2%. FXIa was preincubated with compound for 30-minutes and then substrate was added to initiate the reaction. The assay was run with either end point (EP) reads at 30 min or kinetic (KIN) reads at 5 min intervals over 30 minutes. The time course was linear using 100 μM FXIa greater than 30 minutes. More specifically, the assay was run as follows: • 100 nL of 0.01 mM test compound was dispensed into black 384-well non-binding Greiner BioOne 784900 plate for 0.1 μM final concentration; • 5 μL of 1× assay buffer was dispensed to column 24 (low control) and 5 μL 2× Factor XIa solution was dispensed to columns 1-23 (column 23 high control); • the plate was centrifuged with a “cover” plate at 500 rpm for 1 min • the plate was pre-incubated for 30 minutes at room temperature with plate covered; • 5 μL of 2× 5Fam-KLTRAETV-K5Tamra peptide substrate was dispensed into the entire plate, columns 1-24; • the plate was centrifuged with a “cover” plate at 500 rpm for 1 min; • the plate was read monitoring fluorescence intensity on the BMG PHERAStar at room temperature, using fluorescence module 485 nm/520 nm.
(§1) Percent inhibition (IC50) curves were generated per compound tested, and data was analyzed using a 4-parameter logistic fit using GeneData Screener. The relative fluorescence unit (RFU) values were normalized to percent inhibition using the following equation:
[formula] • where LC—low control=mean signal of no Factor XIa or 100% inhibition of Factor XIa; HC—high control=mean signal of Factor XIa+5Fam-KLTRAETV-K5Tamra peptide substrate with DMSO only.
(§2) An 11-point dose response curve for the test compound(s) was generated using GENDATA to determine IC50 value based on the following equation:
(§3) [formula] • where Y is the % inhibition in the presence of X inhibitor concentration, Top=high control=mean signal of Factor XIa+5Fam-KLTRAETV-K5Tamra peptide substrate with DMSO only; Bottom=low control—mean signal of no Factor XIa or 100% inhibition of Factor XIa; HillSlope—Hill coefficient; and IC50=concentration of compound with 50% inhibition in relation to top/high control.
Representative compounds of formula (I) of the present invention were tested according to the procedure described in Biological Example 1 and Biological Example 2 above, with results as listed in Table 3, below. […]

[2] = biological target: human plasma kallikrein (Homo sapiens, UniProt P03952); assay: Kallikrein inhibition assay utilizing a quenched AMC peptide substrate (FLINT); format: biochemical; conditions: for IC50: kinetic reads, unit μM; for pIC50: 30 min preincubation
Protocol: Biological Example 2: Kallikrein Inhibition Assay Utilizing a Quenched AMC Peptide Substrate
A fluorescence intensity (FLINT) based assay was used to monitor inhibition of human plasma kallikrein. The peptide substrate, Z-Gly-Pro-Arg-AMC (Purchased from Bachem; Catalog #I-1150) was chosen based on its relatively low KM for kallikrein which enables running the assay at lower substrate concentrations to control background fluorescence. The kinetic parameters for this substrate were determined by fitting titration data to the Michaelis-Menten equation yielding a KM=40 μm, kcat=0.76 s^−1, and kcat/KM=18932 M^−1s^−1.
The Kallikrein FLINT assay was used with the following Z-Gly-Pro-Arg-AMC assay buffer: 50 mM Tris, pH 7.5, 100 mM NaCl, 5 mM CaCl2, 0.1 mg/mL BSA, 0.03% CHAPS. Assay buffer was prepared by mixing all ingredients fresh. 2× Z-Gly-Pro-Arg-AMC peptide substrate was prepared by diluting 10 mM stock into 1× assay buffer for a 100 μM working concentration (50 μM final concentration). The 2× kallikrein stock solution was prepared by diluting 14.76 μM stock in 1× assay buffer for a 4 nM working stock solution (2 nM final concentration).
Test compound(s) were run in an 11-point, 3-fold serial dilution with a final top compound concentration of 1 μM. Final DMSO in assay was 2%. Plasma kallikrein was pre-incubated for 30-minute with compound and then 50 μM substrate was added to initiate the reaction. The assay was run with either end point (EP) reads at 30 min or kinetic (KIN) reads at 5 min intervals over 30 minutes. The time course was linear using 2 nM kallikrein greater than 30 minutes. More specifically, the assay was run as follows: • 100 nL of 0.1 mM test compound was dispensed into black 384-well non-binding Greiner BioOne 784900 plate for 1 μM final concentration; • 5 μL of 1× assay buffer was dispensed to columns 24 (low control) and 5 μL 2× human kallikrein enzyme solution was dispensed to columns 1-23 (column 23 high control); • the plate was centrifuged with a “cover” plate at 500 rpm for 1 min • the plate was pre-incubated for 30 minutes at room temperature with plate covered; • 5 μL of 2× Z-Gly-Pro-Arg-AMC peptide substrate was dispensed into the entire plate, columns 1-24; • the plate was centrifuged with a “cover” plate at 500 rpm for 1 min; • the plate was read monitoring fluorescence intensity on the BMG PHERAStar at room temperature, using fluorescence module 340 nm/440 nm.
as §1
% inhibition=((HC−LC)−(compound−LC)/(HC−LC))*100 • where LC—low control=mean signal of human kallikrein enzyme or 100% inhibition of human kallikrein enzyme; HC—high control=mean signal of Factor XIa+Z-Gly-Pro-Arg-AMC peptide substrate with DMSO only.
as §2
as §3, with “Y=Bottom+(Top−Bottom)/(1+10^((log IC50−X)*HillSlope))” for “[formula]”, “human kallikrein enzyme+Z-Gly-Pro-Arg-AMC” for “Factor XIa+5Fam-KLTRAETV-K5Tamra”, “human kallikrein enzyme” for “Factor XIa”, “human kallikrein enzyme;” for “Factor XIa;”
Representative compounds of formula (I) of the present invention were tested according to the procedure described in Biological Example 1 and Biological Example 2 above, with results as listed in Table 3, below. Results listed in the (ER) column were measured using endpoint reads where a single fluorescence reading was measured for each well at a 30 min timepoint. […]

[3] = kinetic reads at 5 min intervals over 30 min, read-out: FXIa (KIN) IC50
[4] = read-out: Kallikrein (KIN) IC50
[5] = kinetic reads at 5 min intervals over 30 min, read-out: Kallikrein (KIN) IC50

Factor XIa, sequence (P03951 388-625 limits assumed): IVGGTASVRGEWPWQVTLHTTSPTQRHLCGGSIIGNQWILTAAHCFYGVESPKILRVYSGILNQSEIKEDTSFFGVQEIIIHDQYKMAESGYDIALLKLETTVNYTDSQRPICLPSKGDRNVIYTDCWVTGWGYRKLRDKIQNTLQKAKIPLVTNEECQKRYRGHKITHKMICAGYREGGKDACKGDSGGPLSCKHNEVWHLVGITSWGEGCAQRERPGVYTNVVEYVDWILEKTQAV
Factor XIa, sequence (P03951 19-387 partner limits assumed): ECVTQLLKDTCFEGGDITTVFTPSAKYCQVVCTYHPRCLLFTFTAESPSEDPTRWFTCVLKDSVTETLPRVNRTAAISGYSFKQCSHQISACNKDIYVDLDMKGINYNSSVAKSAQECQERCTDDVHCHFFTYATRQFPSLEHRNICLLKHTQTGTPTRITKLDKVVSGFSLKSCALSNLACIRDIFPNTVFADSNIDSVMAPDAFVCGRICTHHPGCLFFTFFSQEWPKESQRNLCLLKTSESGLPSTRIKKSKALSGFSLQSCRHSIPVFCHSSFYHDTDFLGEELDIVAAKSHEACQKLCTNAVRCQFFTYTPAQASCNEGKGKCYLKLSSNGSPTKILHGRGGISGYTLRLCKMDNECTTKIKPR
human plasma kallikrein, sequence (P03952 391-638 limits assumed): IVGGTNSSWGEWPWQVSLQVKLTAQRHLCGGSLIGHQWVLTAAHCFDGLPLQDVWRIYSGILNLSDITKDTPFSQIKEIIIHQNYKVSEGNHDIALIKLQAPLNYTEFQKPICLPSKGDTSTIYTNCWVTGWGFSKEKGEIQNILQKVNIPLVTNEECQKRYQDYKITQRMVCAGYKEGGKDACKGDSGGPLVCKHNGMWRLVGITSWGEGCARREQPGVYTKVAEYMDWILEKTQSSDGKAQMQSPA
human plasma kallikrein, sequence (P03952 20-390 partner limits assumed): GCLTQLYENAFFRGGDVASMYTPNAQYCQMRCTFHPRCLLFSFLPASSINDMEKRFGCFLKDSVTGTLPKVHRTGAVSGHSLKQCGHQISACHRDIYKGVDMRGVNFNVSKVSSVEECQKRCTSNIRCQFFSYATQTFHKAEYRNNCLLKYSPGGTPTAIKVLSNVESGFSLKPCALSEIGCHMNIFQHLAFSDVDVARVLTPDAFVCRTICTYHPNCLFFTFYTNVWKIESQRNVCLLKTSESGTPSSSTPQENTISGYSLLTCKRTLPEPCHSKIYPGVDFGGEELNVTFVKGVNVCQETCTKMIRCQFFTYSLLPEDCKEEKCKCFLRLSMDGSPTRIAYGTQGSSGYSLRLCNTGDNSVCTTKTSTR

Structure (SMILES) | pIC50 [1, 3] | IC50 [2, 4] [µM] | pIC50 [2, 5] | pIC50 ([1]; end point read at 30 min, read-out: FXIa (EP) IC50) | pIC50 ([2]; end point read at 30 min, read-out: Kallikrein (EP) IC50)
Cn1nncc1-c1cn([C@@H](CC2CC2)c2ccc(-c3c(-n4cnnn4)ccc(Cl)c3F)c[n+]2[O-])nn1 [T5, (S)-5-(3-Chloro-2-fluoro-6-(1H-tetrazol-1-yl)phenyl)-2-(2-cyclopropyl-1-(3′-methyl-1H,3′H-[4,4′-bi(1,2,3-triazol)]-1-yl)ethyl)pyridine 1-oxide] | 6.51 | > 10 | – | – | –
COC(=O)Nc1ccc(-c2cn(C(CC3CC3)c3ccc(-c4c(-n5cnnn5)ccc(Cl)c4F)c[n+]3[O-])cn2)cc1 (stereo not shown) [M3, 5-(3-Chloro-2-fluoro-6-(1H-tetrazol-1-yl)phenyl)-2-(2-cyclopropyl-1-(4-(4-((methoxycarbonyl)amino)phenyl)-1H-imidazol-1-yl)ethyl)pyridine 1-oxide] | 8.07 | – | 6.77 | – | –
Cn1nncc1-c1cn([C@@H](CCOC(F)F)c2ccc(-c3c(-n4cc(C(F)(F)F)nn4)ccc(Cl)c3F)c[n+]2[O-])cn1 [M8, (S)-5-(3-Chloro-2-fluoro-6-(4-(trifluoromethyl)-1H-1,2,3-triazol-1-yl)phenyl)-2-(3-(difluoromethoxy)-1-(4-(1-methyl-1H-1,2,3-triazol-5-yl)-1H-imidazol-1-yl)propyl)pyridine 1-oxide] | < 6.70 | > 20 | – | – | –
CCC(c1ccc(-c2c(-n3cnnn3)ccc(Cl)c2F)c[n+]1[O-])n1cnc(-c2ccc(NC(=O)OC)cc2)c1 (racemic) [M4, 5-(3-Chloro-2-fluoro-6-(1H-tetrazol-1-yl)phenyl)-2-(1-(4-(4-((methoxycarbonyl)amino)phenyl)-1H-imidazol-1-yl)propyl)pyridine 1-oxide] | 7.92 | – | 6.69 | – | –
Cn1nncc1-c1cn([C@@H](CCOC(F)F)c2ccc(-c3c(-n4cc(Cl)nn4)ccc(Cl)c3F)c[n+]2[O-])cn1 [M11, (S)-5-(3-Chloro-6-(4-chloro-1H-1,2,3-triazol-1-yl)-2-fluorophenyl)-2-(3-(difluoromethoxy)-1-(4-(1-methyl-1H-1,2,3-triazol-5-yl)-1H-imidazol-1-yl)propyl)pyridine 1-oxide] | < 6.70 | > 20 | – | – | –
[O-][n+]1cc(-c2c(-n3cnnn3)ccc(Cl)c2F)ccc1[C@H](CCOC(F)F)n1cnc(-c2cnnn2C(F)F)c1 [M13, (S)-5-(3-Chloro-2-fluoro-6-(1H-tetrazol-1-yl)phenyl)-2-(3-(difluoromethoxy)-1-(4-(1-(difluoromethyl)-1H-1,2,3-triazol-5-yl)-1H-imidazol-1-yl)propyl)pyridine 1-oxide] | < 6.70 | > 2 | – | – | –
COC(=O)Nc1ccc(-c2cn(C(CC3CC3)c3ccc(-c4c(-n5cnnn5)ccc(Cl)c4F)c[n+]3[O-])nn2)cc1 (single isomer, unassigned) [T4, (S*)-5-(3-Chloro-2-fluoro-6-(1H-tetrazol-1-yl)phenyl)-2-(2-cyclopropyl-1-(4-(4-((methoxycarbonyl)amino)phenyl)-1H-1,2,3-triazol-1-yl)ethyl)pyridine 1-oxide] | 9.00 | – | 7.83 | – | –
O=C(NC1CC1)c1ccc(-c2cn(C(CC3CC3)c3ccc(-c4cc(Cl)ccc4-n4cnnn4)c[n+]3[O-])nn2)cc1 (stereo not shown) [T2, 5-(5-Chloro-2-(1H-tetrazol-1-yl)phenyl)-2-(2-cyclopropyl-1-(4-(4-(cyclopropylcarbamoyl)phenyl)-1H-1,2,3-triazol-1-yl)ethyl)pyridine 1-oxide] | – | – | – | 7.42 | 6.44
Cn1ncnc1-c1cn(C(CCOC(F)F)c2ccc(-c3c(-n4cc(C(F)(F)F)nn4)ccc(Cl)c3F)c[n+]2[O-])nn1 (stereo not shown) [T7, 5-(3-Chloro-2-fluoro-6-(4-(trifluoromethyl)-1H-1,2,3-triazol-1-yl)phenyl)-2-(3-(difluoromethoxy)-1-(4-(1-methyl-1H-1,2,4-triazol-5-yl)-1H-1,2,3-triazol-1-yl)propyl)pyridine 1-oxide] | ~8.64 | – | ~6.48 | – | –
[O-][n+]1cc(-c2c(-n3cc(C(F)(F)F)nn3)ccc(Cl)c2F)ccc1[C@@H](CCOC(F)F)n1cnc(-c2ncnn2C(F)F)c1 [M7, (R)-5-(3-Chloro-2-fluoro-6-(4-(trifluoromethyl)-1H-1,2,3-triazol-1-yl)phenyl)-2-(3-(difluoromethoxy)-1-(4-(1-(difluoromethyl)-1H-1,2,4-triazol-5-yl)-1H-imidazol-1-yl)propyl)pyridine 1-oxide] | ~7.48 | – | 6.47 | – | –
Cn1nncc1-c1cn([C@H](CCOC(F)F)c2ccc(-c3c(-n4cc(C(F)(F)F)nn4)ccc(Cl)c3F)c[n+]2[O-])cn1 [M10, (R)-5-(3-Chloro-2-fluoro-6-(4-(trifluoromethyl)-1H-1,2,3-triazol-1-yl)phenyl)-2-(3-(difluoromethoxy)-1-(4-(1-methyl-1H-1,2,3-triazol-5-yl)-1H-imidazol-1-yl)propyl)pyridine 1-oxide] | 9.30 | – | 7.31 | – | –
